Here are results for 15 compounds from ChEMBL document CHEMBL1146678, “Inhibitors of multidrug resistance (MDR) have affinity for MDR substrates” (Bioorg Med Chem Lett, 2004).

Calls of active or inactive are those of the source. The rule behind the calls is not given here. Numbered stars: 1 amine (or outer) side, 2 acyl side, 3 side chain; on linkers, the order of the positions; unused ones are H or OH. Bridge positions count the residues as written; N and C are the ends. Square brackets hold non-standard residues; d marks the D form. Peptide text beside a SMILES is read from it. I, II: the chains in the order shown. Actinocin(9to1) = Cc1c2oc3c(C)ccc(C(=O)[*:1])c3nc-2c(C(=O)[*:2])c(N)c1=O; NMeV = CN[C@H](C(=O)O)C(C)C; Sar = CNCC(=O)O

A short description of test [1]: Relative resistance is the ratio of IC50 values of drug with JTV-519 to that without the reversing agent. The class given is functional.
The test system of test [2] is A549. Put plainly: Antagonism of indomethacin in A549 cells. The class given is functional.
Test [3] has as its system A549. Put plainly: Antagonism of sulindac in A549 cells. The class given is functional.
In test [4] the test system is A549. Put plainly: Antagonism of tolmetin in A549 cells. In kind it is functional.
The subject of test [5] is DLKP cell line. Put plainly: Antagonism of indomethacin in DLKP cells. In kind it is functional.
Test [6] relates to DLKP cell line. Put plainly: Antagonism of sulindac in DLKP cells. The class given is functional.
A short description of test [7]: Inhibitory activity in presence of VX-710 inhibitor; successful in clinical trials. The class given is functional.
The nature of test [8]: Fold reduction in minimum inhibitory concentration of antibiotic in presence of GG918. In kind it is functional.
Test [9] can be described thus: Fold reduction in minimum inhibitory concentration of antibiotic in presence of Reserpine. In kind it is functional.
Test [10] has as its system A549. Put plainly: Synergism with tolmetin in A549 cells. In kind it is functional.
Test [11] deals with A549. Put plainly: Synergism with indomethacin in A549 cells. In kind it is functional.
For test [12], the system named is A549. The test can be described thus: Synergism with sulindac in A549 cells. The class given is functional.
In test [13] the test system is DLKP cell line. Put plainly: Synergism with sulindac in DLKP cells. In kind it is functional.
Test [14] concerns DLKP cell line. Put plainly: Synergism with tolmedin in DLKP cells. The class given is functional.
In test [15] the test system is NCI-H69. The test can be described thus: Approximate percentage for level of inhibition of cell growth in presence and absence of inhibitor (Value of drug + B669 / Value of drug). In kind it is functional.
For test [16], the system named is NCI-H69. The test can be described thus: Approximate percentage for level of inhibition of cell growth in presence and absence of inhibitor (Value of drug + Clofazimine / Value of drug). The class given is functional.
Test [17] concerns NCI-H69. The test can be described thus: Approximate percentage for level of inhibition of cell growth in presence and absence of inhibitor (Value of drug + GG918 / Value of drug). The class given is functional.
Test [18] concerns NCI-H69. The test can be described thus: Approximate percentage for level of inhibition of cell growth in presence and absence of inhibitor (Value of drug + Verapamil / Value of drug). The class given is functional.
Test [19] has as its system NCI-H69. The test can be described thus: Approximate percentage for level of inhibition of cell growth in presence and absence of inhibitor (Value of drug + alpha Tochoferol / Value of drug). The class given is functional.
A short description of test [20]: Relative inhibition (IC50) in presence and absence of reserpine. In kind it is functional.
The subject of test [21] is NCI-H69. Put plainly: Percentage inhibition of cell growth in the presence of compound and in the absence of […] in H69/LX4 cells with clofazimine MDR inhibitor. In kind it is functional.
For test [22], the system named is DLKP cell line. Put plainly: Synergism with indomethacin in DLKP cells. The class given is functional.
A short description of test [23]: Dose modifying factor expressed as the ratio of IC50 for the chemotherapy drug to IC50 for drug + GG918; Range = 1.2-1850. In kind it is functional.
For test [24], the system named is Lycopus europaeus. The test can be described thus: Inhibitory activity against Lycopus europeus; no inhibitory activity. In kind it is functional, organism-based.
Test [25] can be described thus: Inhibitory concentration in presence of MDR inhibitor XR-9576. The class given is functional.
Test [26] can be described thus: Fold reduction in fluorescence in presence and absence of MC-002595 at 128 mg/mL. In kind it is functional.
The test system of test [27] is NCI-H69. Put plainly: Percentage inhibition of cell growth in the presence of compound in H69/LX4 cells with Clofazemine as inhibitor; reversal of inhibition. The class given is functional, cell-based.
In test [28] the test system is NCI-H69. Put plainly: Percentage inhibition of cell growth in the presence of compound in H69/LX4 cells with as GG918 inhibitor; reversal of inhibition. In kind it is functional, cell-based.
In test [29] the test system is NCI-H69. Put plainly: Percentage inhibition of cell growth in the presence of compound in H69/LX4 cells with B669 as inhibitor; reversal of inhibition. In kind it is functional, cell-based.
The test system of test [30] is NCI-H69. The test can be described thus: Percentage inhibition of cell growth in the presence of compound in H69/LX4 cells with verapamil as inhibitor; reversal of inhibition. The class given is functional, cell-based.
Test [31] in a line: Dose modifying factor expressed as the ratio of IC50 for the chemotherapy drug to IC50 for drug + GG918; Range = 1.0-23. In kind it is functional.

As to `Cc1c2oc3c(C)ccc(C(=O)N[C@@H]4C(=O)N[C@H](C(C)C)C(=O)N5CCC[C@H]5C(=O)N(C)CC(=O)N(C)[C@@H](C(C)C)C(=O)O[C@@H]4C)c3nc-2c(C(=O)N[C@@H]2C(=O)N[C@H](C(C)C)C(=O)N3CCC[C@H]3C(=O)N(C)CC(=O)N(C)[C@@H](C(C)C)C(=O)O[C@@H]2C)c(N)c1=O` (I: T[dV]P[Sar][NMeV] / II: T[dV]P[Sar][NMeV]; ester I:1-I:C, II:1-II:C; linker I:N-II:N via Actinocin(9to1)), the Ratio in [1] amounted to 3.

Turning to `CC(=O)O[C@H]1C(=O)[C@@]2(C)[C@H]([C@H](OC(=O)c3ccccc3)[C@]3(O)C[C@H](OC(=O)[C@H](O)[C@@H](NC(=O)c4ccccc4)c4ccccc4)C(C)=C1C3(C)C)[C@]1(OC(C)=O)CO[C@@H]1C[C@@H]2O` [PACLITAXEL], the Combination_index is given as 2.234 in [2]; 1.539 in test [3]; 1.349 in test [4]; 1.227 in test [5]; 1.233 in [6]. Besides, in test [7], the inhibition entry was “Active”.

As for `COc1c(N2C[C@@H]3CCCN[C@@H]3C2)c(F)cc2c(=O)c(C(=O)O)cn(C3CC3)c12`, the Fold reduction turned out to be 0 in test [8] and 2 in [9].

In the case of `COc1cccc2c1C(=O)c1c(O)c3c(c(O)c1C2=O)C[C@@](O)(C(=O)CO)C[C@@H]3O[C@H]1C[C@H](N)[C@H](O)[C@H](C)O1` [DOXORUBICIN], the Combination_index in [10] was 0.357; in test [11], 0.251; in [12] it was 0.368; in test [13], 0.449; in [14], 0.467. The Reduction in test [15] is on record as around 31%; in [16], around 40%; in test [17], around 58%; in test [18], around 33%; in [19], 0%. This compound returned a Fold increase in test [20] of 2.9.

Turning to `CC[C@]1(O)C[C@@H]2CN(CCc3c([nH]c4ccccc34)[C@@](C(=O)OC)(c3cc4c(cc3OC)N(C)[C@H]3[C@@](O)(C(=O)OC)[C@H](OC(C)=O)[C@]5(CC)C=CCN6CC[C@]43[C@@H]65)C2)C1` [VINBLASTINE], the Reduction in test [18] was around 88%; in [19], around 95%; in test [21], around 94%. The same compound showed a Fold increase in test [20] of 8.

For the compound `COc1cc([C@@H]2c3cc4c(cc3[C@@H](O[C@@H]3O[C@@H]5CO[C@@H](C)O[C@H]5[C@H](O)[C@H]3O)[C@H]3COC(=O)[C@H]23)OCO4)cc(OC)c1O` [ETOPOSIDE], the Combination_index was 0.916 in test [11]; 0.681 in test [12]; 0.463 in test [13]; 0.745 in test [14]; 0.534 in [22]. In addition, the Ratio in test [1] was found to be 2.6.

Regarding `Cc1ccc(NC(=O)c2ccc(CN3CCN(C)CC3)cc2)cc1Nc1nccc(-c2cccnc2)n1`, in test [1], the Ratio worked out at 3.1.

On to `O=C1c2c(O)ccc(O)c2C(=O)c2c(NCCNCCO)ccc(NCCNCCO)c21`, for which, in test [23], the Ratio turned out to be 1.2.

On to `CC[C@]1(O)C[C@H]2CN(CCc3c([nH]c4ccccc34)[C@@](C(=O)OC)(c3cc4c(cc3OC)N(C=O)[C@H]3[C@@](O)(C(=O)OC)[C@H](OC(C)=O)[C@]5(CC)C=CCN6CC[C@]43[C@@H]65)C2)C1` [VINCRISTINE], for which the Combination_index stood at 0.301 in test [11], 0.462 in test [12], 0.241 in test [13] and 0.593 in test [14]. Moreover, in test [1], the Ratio was 3.7.

Take `CCn1cc(C(=O)O)c(=O)c2cc(F)c(N3CCNCC3)cc21`: the inhibition entry in test [24] was “inactive”. The Fold reduction in test [8] amounted to 8; in [9], 4.

In general, IC50 refers to the concentration at which inhibition is half-maximal. Turning to `COc1cccc2c1C(=O)c1c(O)c3c(c(O)c1C2=O)C[C@@](O)(C(C)=O)C[C@@H]3O[C@H]1C[C@H](N)[C@H](O)[C@H](C)O1` [DAUNORUBICIN], in test [25], the IC50 was 38.2 nM.

In [26], `c1ccc(Nc2cccc3ccccc23)cc1` had a Fold reduction of 2.3.

For `Cc1c(C)c2c(c(C)c1O)CC[C@@](C)(CCC[C@H](C)CCC[C@H](C)CCCC(C)C)O2`, the inhibition entry in test [27], in test [28], in test [29] and in test [30] was “reversal of inhibition” each time.

For `CC[C@@]1(O)C(=O)OCc2c1cc1n(c2=O)Cc2cc3c(CN(C)C)c(O)ccc3nc2-1`, the Ratio in [31] turned out to be 1.

Take `O=C(O)c1cn(C2CC2)c2cc(N3CCNCC3)c(F)cc2c1=O`: the Fold reduction in [8] and in test [9] was 8 throughout.
